Assay results: PubChem BioAssay AID2060487 (Molecular Pharmacology Branch, DTP, NCI, 2025)
“And” between values parts separate entries of the source, which are not always exact repeats. Equal entries are not always repeated.

Test system: 997537-175-T-J1-PDC complex spheroid viability
Experiment: Anticancer human tumor 997537-175-T-J1-PDC patient-derived colon adenocarcinoma cell line growth inhibition [GQUAD]
Conditions: for viability, T/C: stronger effect = lower value
Text: DNA G-quadruplex Stabilizer Agents in Combinations in Complex Spheroids
A high-throughput screen of multi-cell type tumor spheroids was designed to identify active combinations of DNA G-quadruplex stabilizer agents and targeted small molecules. Complex spheroids include a stromal component modeled by human endothelial cells (HUVEC) and fibroblasts modeled by human mesenchymal stem cells (MSCs). The concentration ranges selected for each drug and investigational agent were based upon clinically achievable concentrations if the clinical Cmax of the agent was known.
Compounds. The drugs and investigational agents: pidnarulex (CX-5461; NSC782164), APTO-253 (NSC789042), BRACO-19 (NSC847499), peposertib (NSC802822), ceralasertib (NSC780249), elimusertib (NSC800525), camonsertib (NSC841442), AZD-1390 (NSC803789), olaparib (NSC753686), talazoparib (NSC767125), ART-558 (NSC835418), sotorasib (NSC818433), MRTX-1133 (NSC836407), SN-38 (NSC673596), topotecan (NSC609699), etoposide (NSC141540), doxorubicin (NSC123127), gemcitabine (NSC613327), 5-fluorouracil (NSC19893), paclitaxel (NSC125973), vemurafenib (NSC761431), panobinostat (NSC761190), R-306465 (JNJ-16241199; NSC773264), adavosertib (NSC754352), TP-3654 (NSC805149), carboplatin (NSC241240), KSQ-4279 (NSC840948), and staurosporine (NSC755774) were obtained from the National Cancer Institute (NCI) Developmental Therapeutics Program Chemical Repository (34). The FDA-approved anticancer drug set is available from the NCI Developmental Therapeutics Program. […] The stock solutions were prepared in dimethyl sulfoxide (DMSO, Sigma-Aldrich, St. Louis, MO, cat. D2650) at 800-fold the tested concentration and stored at -70 degrees C prior to their use. All drugs and investigational agents were tested over a range starting from a high concentration at or near the clinical Cmax and decreasing in half-log increments. If the clinical Cmax for an agent had not been determined, the highest concentration tested was 10 microM.
2.3 Cell Culture. All cells were maintained in an incubator at 37 degrees C and 5% CO2 with 95% humidity. The PDC lines were cultured according to standard operating procedures established by the NCI PDMR. All PDCs were thawed and cultured in Matrigel-coated flasks prepared with a working solution of 1X Ham's F-12 nutrient mix, without supplementation (Invitrogen, cat. 11765054), 100 U/mL penicillin-streptomycin (Invitrogen, cat. 15140122), and 2.5% Matrigel (Corning Inc., cat. 354248) for the first three passages. The 857933-349-R-J2-PDC line was cultured in 6C/Colon 1B media, which includes advanced DMEM/F-12 (Thermo Fisher Scientific, cat. 12634028), 10 mM HEPES (Thermo Fisher Scientific, cat. 15630080), 1X GlutaMAX supplement (Thermo Fisher Scientific, cat. 35050061), 0.1 mg/mL primocin (InvivoGen, cat. ant-pm-2), 10% defined fetal bovine serum, heat inactivated (HyClone Laboratories Inc., cat. SH30070.03HI), 50% L-WRN conditioned media (ATCC, cat. CRL-3276), 1.25 mM N-Acetyl-L-cysteine (Sigma-Aldrich, cat. A9165), 10 mM nicotinamide (Sigma-Aldrich, cat. N0636), 1X B-27 supplement (Thermo Fisher Scientific, cat. 17504044), 1X N-2 supplement (Thermo Fisher Scientific, cat. 17502048), 10 microM Y-27632 dihydrochloride (Tocris Bioscience, cat. 1254), and 50 ng/mL human EGF recombinant protein (Thermo Fisher Scientific, cat. PHG0311). The 485176-168-R4-J1-PDC line was cultured in Panc media, which includes all 6C/Colon 1B media components plus 100 ng/mL human FGF-10 (Thermo Fisher Scientific, cat. 100-26), 500 nM SB-431542 (Selleckchem, cat. S1067), and gastrin (Tocris, cat. 3006).
[…]
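Further: spheroids exposed to the agents for 7 days.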
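Wherever viability, T/C is given: 100% = DMSO vehicle control viability.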

Structure (SMILES): C=CCn1c(=O)c2cnc(Nc3ccc(N4CCN(C)CC4)cc3)nc2n1-c1cccc(C(C)(C)O)n1
- viability, T/C (compound 0.0316 µM): 95.7% and 89.4% and 112%
- viability, T/C (compound 0.1 µM): 75.6% and 101% and 92.2%
- viability, T/C (compound 0.316 µM): 81.8% and 88.3% and 92.2%
- viability, T/C (compound 1 µM): 80.2% and 84.5% and 79.4%
- viability, T/C (compound 3.16 µM): 73.2% and 44.9% and 49.3%
- viability, T/C (compound 10 µM): 28.9% and 30.8% and 24.2%
- IC50 (curve of compound): 5.75 µM and 2.73 µM and 3.53 µM

Structure (SMILES): CC1COCCN1c1cc(-c2ccnn2C)c2ccnc(-c3ccn[nH]3)c2n1 (stereo not given) + Cc1[nH]c2ccc(F)cc2c1-c1nc2c3cccnc3c3ncccc3c2[nH]1
- IC50 (curve of first compound, second compound 0.0316 µM): 0.209 µM
- IC50 (curve of first compound, second compound 0.1 µM): 0.287 µM
- IC50 (curve of first compound, second compound 0.316 µM): 0.288 µM
- IC50 (curve of first compound, second compound 1 µM): 0.376 µM
- IC50 (curve of first compound, second compound 3.16 µM): 0.179 µM
- IC50 (curve of first compound, second compound 10 µM): 0.113 µM
- viability, T/C (second compound 0.0316 µM, first compound 0.0316 µM): 82.8%
- viability, T/C (second compound 0.0316 µM, first compound 0.1 µM): 66.7%
- viability, T/C (second compound 0.0316 µM, first compound 0.316 µM): 36.5%
- viability, T/C (second compound 0.0316 µM, first compound 1 µM): 28.3%
- viability, T/C (second compound 0.0316 µM, first compound 3.16 µM): 35%
- viability, T/C (second compound 0.0316 µM, first compound 10 µM): 62.5%
- viability, T/C (second compound 0.1 µM, first compound 0.0316 µM): 86.1%
- viability, T/C (second compound 0.1 µM, first compound 0.1 µM): 64.5%
- viability, T/C (second compound 0.1 µM, first compound 0.316 µM): 57.3%
- viability, T/C (second compound 0.1 µM, first compound 1 µM): 24.7%
- viability, T/C (second compound 0.1 µM, first compound 3.16 µM): 37.3%
- viability, T/C (second compound 0.1 µM, first compound 10 µM): 46.5%
- viability, T/C (second compound 0.316 µM, first compound 0.0316 µM): 76.7%
- viability, T/C (second compound 0.316 µM, first compound 0.1 µM): 58.5%
- viability, T/C (second compound 0.316 µM, first compound 0.316 µM): 57.4%
- viability, T/C (second compound 0.316 µM, first compound 1 µM): 32.5%
- viability, T/C (second compound 0.316 µM, first compound 3.16 µM): 36.4%
- viability, T/C (second compound 0.316 µM, first compound 10 µM): 46.4%
- viability, T/C (second compound 1 µM, first compound 0.0316 µM): 60.4%
- viability, T/C (second compound 1 µM, first compound 0.1 µM): 56.1%
- viability, T/C (second compound 1 µM, first compound 0.316 µM): 51.6%
- viability, T/C (second compound 1 µM, first compound 1 µM): 21.6%
- viability, T/C (second compound 1 µM, first compound 3.16 µM): 42.6%
- viability, T/C (second compound 1 µM, first compound 10 µM): 57.9%
- viability, T/C (second compound 3.16 µM, first compound 0.0316 µM): 54.8%
- viability, T/C (second compound 3.16 µM, first compound 0.1 µM): 70.2%
- viability, T/C (second compound 3.16 µM, first compound 0.316 µM): 29.2%
- viability, T/C (second compound 3.16 µM, first compound 1 µM): 40.8%
- viability, T/C (second compound 3.16 µM, first compound 3.16 µM): 33.8%
- viability, T/C (second compound 3.16 µM, first compound 10 µM): 47%
- viability, T/C (second compound 10 µM, first compound 0.0316 µM): 65.8%
- viability, T/C (second compound 10 µM, first compound 0.1 µM): 55.3%
- viability, T/C (second compound 10 µM, first compound 0.316 µM): 36.4%
- viability, T/C (second compound 10 µM, first compound 1 µM): 42.5%
- viability, T/C (second compound 10 µM, first compound 3.16 µM): 52.3%
- viability, T/C (second compound 10 µM, first compound 10 µM): 47.9%

Structure (SMILES): CC(C)(O)C1CCC(Nc2ccc3ncc(-c4cccc(C(F)(F)F)c4)n3n2)CC1 (stereo not given)
- viability, T/C (compound 0.0316 µM): 106% and 96.5% and 115%
- viability, T/C (compound 0.1 µM): 111% and 78.3% and 65.2%
- viability, T/C (compound 0.316 µM): 114% and 96.7% and 109%
- viability, T/C (compound 1 µM): 101% and 61.5% and 68.3%
- viability, T/C (compound 3.16 µM): 98.6% and 24.1% and 40.3%
- viability, T/C (compound 10 µM): 96.8% and 28.7% and 36.9%
- IC50 (curve of compound): > 10 µM and 1.46 µM and 2.03 µM

Structure (SMILES): Cc1cccc(N(C)C(=O)C2C(O)CCN2c2nc(C)cc(C(F)(F)F)c2C#N)c1 (stereo not given)
- viability, T/C (compound 0.0316 µM): 107% and 89.4% and 99.3%
- viability, T/C (compound 0.1 µM): 97.1% and 94.8% and 91.9%
- viability, T/C (compound 0.316 µM): 97% and 109% and 98%
- viability, T/C (compound 1 µM): 88.5% and 83.3% and 100%
- viability, T/C (compound 3.16 µM): 60.2% and 82.8% and 85.9%
- viability, T/C (compound 10 µM): 89.4% and 74.4% and 90.4%
- IC50 (curve of compound): > 10 µM

Structure (SMILES): COc1cc(C2c3cc4c(cc3C(OC3OC5COC(C)OC5C(O)C3O)C3COC(=O)C23)OCO4)cc(OC)c1O (stereo not given)
- viability, T/C (compound 0.0316 µM): 109% and 95.5% and 112%
- viability, T/C (compound 0.1 µM): 89.4% and 75.1% and 76.9%
- viability, T/C (compound 0.316 µM): 77.2% and 92.8% and 91.9%
- viability, T/C (compound 1 µM): 93.1% and 76.8% and 89%
- viability, T/C (compound 3.16 µM): 82.3% and 81.8% and 82.2%
- viability, T/C (compound 10 µM): 60.9% and 54.7% and 74.6%
- IC50 (curve of compound): > 10 µM
